For one assay, the target named is GST-p53 His175 (Homo sapiens, UniProt P04637, R175H). The experiment in a line: Dot immunobinding test with purified GST-p53 fusion proteins. To be noted: 20 μg GST fusion purified proteins. The format is binding. Here is the method: (A) Total extracts deriving from SKBR3, (His-175) HT29, (His-273) and H1299 (p53 free) tumour cells have been incubated (1 mg) on SIMP1 and SIMPIKO peptide labelled nitrocellulose membrane and Dot Blot analysed. In (B) the membranes have been incubated with 20 μg of wild type WT GST-p53 purified protein or GST-p53 His-175, GST-p53-His-175, 74-298 or GST alone. In both experiments dots have been detected by labelling the membranes with anti-p53 (DO1) antibody
Nitrocellulose membranes have been cut, washed with water and blotted on the paper filters. The peptides at 250 mM concentration have been transferred on membrane. Labelled membrane has been washed for 10 min. with TBST buffer (10 mM Tris-HCl pH 7.4, 150 mM NaCl, 0.05% (v/v) Tween-20) and then blocked for 45 min with TBST/5% milk. Then the membranes have been incubated for 6 hours at 4° C. in shaker with 1 mg of total protein extract or 20 μg of GST fusion purified proteins. Successively the membranes have been washed with TBST buffer and decorated with anti-p53 antibody (DO1) as a primary antibody. As secondary antibody horse peroxidase conjugated goat antibody has been used. Immunolabelled lanes have been detected using chemiluminescence analysis (Pierce).
The membranes decorated with SIMP peptides also have been incubated with GST-p53 His175, GST p53His74-298, GST WTp53 fusion proteins, GST control.

The subject of the next assay is HT29 cells. The experiment in a line: In vivo tumorigenicity test (xenograft of peptide transfected HT29 cells). To be noted: naked mice, s.c. 5×10^5 peptide transfected cells/mouse, 5 weeks. Here is the method:
In order to assay SIMP1 in vivo antitumor activity nu/nu […] mice were administered subcutaneously with SIMP1, SIMP1KO and SIMP5M transfected HT29 cells (5.0×10^5 cells/mouse). Tumour growth has been monitored over 5 weeks.
Xenograft assays have been carried out by administration to naked mice subcutaneous injections containing 5×10^5 cells/mouse of SIMP1, SIMP1KO and SIMP5M peptide transfected colon and rectum tumour human cell line (nu/nu CD1 Charles River mice). The tumour growth together with animal body weight is monitored for 5 weeks in order to estimate the chronic toxicity
The experiments have been carried out by administration to naked mouse (nu/nu CD1 Charles River mice) subcutaneous injections containing 5×10^5 cells/mouse. The tumour growth has been monitored together with animal body weight for 5 weeks in order to estimate possible not occurred chronic toxic effects (FIG. 5).

The subject of assay [1] is tumour cell lines containing His-175 or His-273 p53 mutation. The experiment in a line: Summary of activity by p53 mutation type. It counts as cell-based. To be noted: for activity on p53 mutant categories (His-175, His-273): summary statement; for specificity for p53 mutation type: FIG. 6 summary. An excerpt:
SIMP1M: FQQSSTARSATW (SEQ ID NO:16) (MW: 1369, PI: 9.75) peptide is a mutated version of SIMP1 peptide wherein K138 residue has been replaced by Arginine.
FIG. 6 that SIMP peptides and by-products thereof displace protein complexes involving mutated protein p53 and p73.

In another assay the target is T1, m-p53His-273/p73 complex (Homo sapiens, UniProt P04637, R273H).
T1 construct: Total cellular lysates (1 mg), have been immunoprecipitated with antibodies directed against p73; endogenous in cells; host or cells: MDA-MB-468
The experiment in a line: Coprecipitation (immunoprecipitation) test of the m-p53/p73 complex in MDA-MB-468 cells. To be noted: His-273 mutation, peptide 20 μM, anti-p73 immunoprecipitation. It counts as cell-based. Here is the method: (§1) (A) MDA-MB-468 (5×10^5) cells have been transfected using a lipofectamine containing mixture, βgal expression vector, which normalizes transfection efficiency, and SIMPI peptide (20 μM). Total cellular lysates (1 mg), have been immunoprecipitated with antibodies directed against p73 and immunoglobulins (IgG). Immunoprecipitates and an aliquot (50 μg) of total lysate after 12% acrylamide gel electrophoretic run have been transferred on nitrocellulose membrane and labelled with antibodies shown in the figure. (B) MDA-MB-468 cells, have been transfected using SIMP1 and SIMP5,6. peptides. Successively, cells have been washed and stimulated with 3 μM Adriamycin. Total obtained lysates (30 μg) have been assayed for the expression of PARP and BAX apoptotic proteins. Lysate has been normalized by assaying γ-tubulin expression. (C-D). Transactivation tests have been carried out by transient transfection of H1299 cells using a mixture containing lipofectamine, SIMP1, SIMP5,6 indicated plasmids (20 μM each) together with pLUC-BAX reporter vector. To each reaction mixture an equal amount of […] expression vector was added, in order to normalize the transfection efficiency.
The cell extracts have been processed in a lysis buffer containing 50 mm Tris HCl pH 8, 100 mM NaCl, 10% glycerol, 1% Triton X-100, 1 mM EDTA, 100 mM NaF, MgCl2, 1 mM PMSF, protease and phosphatase inhibitors. Then extracts have been sonicated and centrifuged at 14.000 rpm for 10 min for the debris removal.
50 μg of solubilised proteins have been separated by electrophoresis on 10 or 15% SDS-polyacrylamide gel. Western blot analysis has been carried out using anti-p53 primary antibodies (DO1 Calbiochem), rabbit anti-PARP, rabbit polyclonal anti-Bax, anti-p21 and anti-tubulin monoclonal antibodies (Calbiochem). […] Immunolabelled lanes have been detected using chemiluminescence analysis (Pierce). […]
In order to evaluate the activity of SIMPI peptide and SIMP1KO and SIMP1M derivatives the ability in disrupting the oncogenic m-p53His-273/p73 complex has been analysed.

Another assay deals with MDA-MB-468 cells. The experiment in a line: Apoptotic tests (PARP and BAX expression, Western blot) after Adriamycin. The format is cell-based, human. The settings on record: MDA-MB-468, 3 μM Adriamycin. Here is the method: as §1
50 μg of solubilised proteins have been separated by electrophoresis on 10 or 15% SDS-polyacrylamide gel. Western blot analysis has been carried out using anti-p53 primary antibodies (DO1 Calbiochem), rabbit anti-PARP, rabbit polyclonal anti-Bax, anti-p21 and anti-tubulin monoclonal antibodies (Calbiochem). Goat anti-mouse and goat anti-rabbit horse peroxidase conjugated secondary antibodies (Amersham) have been used for the expression analyses. Immunolabelled lanes have been detected using chemiluminescence analysis (Pierce).
To this end cell viability and apoptotic tests (FIG. 1B, FIG. 4 B-C) on MDA-MB468 breast carcinoma have been carried out.
Background: A western blot detects proteins with antibodies after separation by electrophoresis.

For assay [2], the system named is m-p53 His273 inhibition on p73 transcription activity. Briefly: Transactivation test with pLUC-BAX reporter in transiently transfected H1299 cells. It counts as cell-based, human. To be noted: peptides 20 μM each. Here is the method:
as §1, with “efficiency. […]” for “efficiency.”
To this end, we have analyzed the ability in blocking the His273 p53 induced inhibition on transcription activity. […]

Assay [3] relates to MDA-MB-468 cells (His-273 p53 mutation). Briefly: Transactivation test (pLUC-BAX, pLUC-p21) in Adriamycin treated MDA-MB-468 cells. The format is cell-based, human. To be noted: MDA-MB-468, 3 μM Adriamycin 24 hours post-transfection, luciferase reporter. Here is the method:
MDA-MB-468 cells have been transfected using a mixture containing lipofectamine, pLUC-BAX plasmid, β-galactosidase expression vector, SIMP1 and SIMP control peptides. The cells, 24 hours post-transfection, have been treated with 3 μM Adriamycin.
MDA-MB-468 cells have been transfected using a mixture containing lipofectamine, pLUC-BAX plasmid, pLUC-p21, β-galactosidase expression vector, SIMP1 peptides and SIMP1M and SIMP1KO derived mutant thereof. The cells, 24 hours post-transfection, have been treated with 3 μM Adriamicyn and then processed.
SKBR3, HT-29, MDA-MB-468 cell lines have been transfected with Lipofectamine 2000 according to the supplier instructions (InVitrogen).
Cells (1.5×10^5) have been transiently transfected using SIMP peptides, expression plasmids and reporter constructs as internal controls for transfection efficiency. After the transfection, SKBR3, HT-29 and MDA-MB-468 have been incubated with 3 μM ADR over 24 hours. Cells have been washed with cold PBS and re-suspended in lysis buffer (Promega) and incubated for 10 min at room temp. Insoluble material has been centrifuged and luciferase activity has been determined using a commercial kit with a luminometer (Turner).
For orientation: A reporter such as luciferase makes a cellular process visible.

Assay [4] deals with MDA-MB468 breast and HT29 colon carcinoma cell lines. The experiment in a line: Cell viability / proliferation assays after peptide transfection. The format is cell-based, human. To be noted: peptide transfected cells. Here is the method:
(A) In order to verify the SIMPI peptide specificity, independently from the cellular context, we tested SIMP1 peptides in some Adriamicyn treated colon carcinoma HT29 (His-273). cell lines. The cells have been transfected using a mixture containing lipofectamine, pLUC-BAX plasmid, β-galactosidase expression vector, SIMP1 and SIMP5M control peptides. 24 hours post-transfection, have been treated with 3 μM Adriamicyn. (B-C). Viability and inhibition assays have been carried out after transfection using SIMP1 and SIMP5M peptides in HT29 (colon cancer) and MDA-MB-468 (breast cancer) cell lines
Cell viability has been tested using Trypan Blue exclusion assays.
We observed a reduction of cell proliferation in MDA-MB468 breast and HT29 colon carcinoma cell lines.

The subject of assay [5] is SKBR3 tumour lines, containing his-175 mutation. To be noted: SKBR3, his-175 mutation; cited from earlier work.
In a further assay the test system is SW480 and MDA-MB-468. To be noted: cell lines containing other types of mutation (SW480, MDA-MB-468); cited from earlier work.

On to “FQQSSTAASATW (SEQ ID NO1 wherein K is substituted by A) [SIMP1KO]”, for which the “reaction with GST-p53 fusion proteins (dot blot, anti-p53 DO1)” value with GST-p53 His175 is “no reaction was observed”. Further, the “tumour growth (tumour size) in vivo” value with HT29 cells was “tumour growth similar to non treated control”. Further, the “activity on p53 mutant categories (His-175, His-273)” value in assay [1] is given as “displays no activity on both mutant categories”.
In the case of “FQQSSTARSATW (SEQ ID NO1 wherein k is substituted by R) [SIMP1M]”, in the assay with m-p53His-273/p73 complex, the “disruption of m-p53 His-273/p73 protein complex (p73 bound m-p53 amount)” value was “disrupt selectively m-p53/p73 complex”. Also, in the assay on MDA-MB-468 cells, the apoptotic response entry is “increase the apoptotic response to chemotherapeutic agents”. Further, the “restoration of p73 transcription activity inhibited by m-p53 His273” value in [2] is recorded as “modify mutated p53/p73 protein complex restoring p73 oncosuppressive functions”. The “Adriamycin chemosensitivity / p73 transcription response” value in assay [3] was “increase Adriamycin chemosensitivty”. The “cell proliferation in vitro” value in assay [4] is listed as “reduce the cell proliferation in vitro”. In addition, in the assay with HT29 cells, the “tumour growth (tumour size) in vivo” value was “meaningful reduction of the growth (tumour size)”. Moreover, in assay [1], the “specificity for p53 mutation type” value is on record as “display specificity for His-273 mutation containing tumours” and the “activity on p53 mutant categories (His-175, His-273)” value is “displays the same, although increased, functions”. Also, the “activity on tumour cell lines containing different mutation types” value in [1] (mutations other than His-273) was “has no activity on tumour cell lines containing different mutation types”.
Regarding “GQRDFNEGQSAPA (p73 SIMP (aa 200-211) wherein Q has been inserted between G (aa200) and R (aa201)) [SIMP6]”, the “sensitivity to chemotherapeutic treatment” value in [5] is given as “more sensitive to chemotherapeutic treatment”. Besides, the “change in apoptotic response” value in the assay with SW480 and MDA-MB-468 is recorded as “do not induce changes in the apoptotic response”.
As to “VVKRCPNHE (p73 SIMP (aa 190-198)) [SIMP5]”, in [5], the “sensitivity to chemotherapeutic treatment” value is given as “more sensitive to chemotherapeutic treatment”. The “change in apoptotic response” value in the assay with SW480 and MDA-MB-468 is recorded as “do not induce changes in the apoptotic response”.
Regarding “VVKRCPNHELGRD (p73 SIMP (aa 190-202)) [SIMP5M, control peptide, reference compound]”, in the assay with GST-p53 His175, the “reaction with GST-p53 fusion proteins (dot blot, anti-p53 DO1)” value was “specifically reacts against his175 m-p53”. Further, in the assay on HT29 cells, the “tumour growth (tumour size) in vivo” value is listed as “tumour growth similar to non treated control”. The “specificity for p53 mutation type” value in assay [1] was “specific for His-175 mutation containing tumours”.
